As a reminder, the IC50 is the point on the concentration scale where inhibition reaches its midpoint. Read a low IC50 as greater potency. For orientation: inhibition means the percentage by which the read-out fell short of the control. Read a high inhibition as a strong effect.

SMILES strings stand for the structures.

Assay [1] concerns the target T1, Nitric oxide synthase 1 (Homo sapiens, UniProt P29475). As to the kind of experiment: Inhibition of cloned (from RNA) human Neuronal nitric oxide synthase.
For assay [2], the target named is T2, Nitric oxide synthase, inducible (Homo sapiens, UniProt P35228). The experiment in a line: Inhibition of cloned (from RNA) human inducible nitric oxide synthase (hiNOS).
Assay [3] concerns the target T3, Nitric oxide synthase 3 (Homo sapiens, UniProt P29474).
T3 sequence (P29474 whole entry): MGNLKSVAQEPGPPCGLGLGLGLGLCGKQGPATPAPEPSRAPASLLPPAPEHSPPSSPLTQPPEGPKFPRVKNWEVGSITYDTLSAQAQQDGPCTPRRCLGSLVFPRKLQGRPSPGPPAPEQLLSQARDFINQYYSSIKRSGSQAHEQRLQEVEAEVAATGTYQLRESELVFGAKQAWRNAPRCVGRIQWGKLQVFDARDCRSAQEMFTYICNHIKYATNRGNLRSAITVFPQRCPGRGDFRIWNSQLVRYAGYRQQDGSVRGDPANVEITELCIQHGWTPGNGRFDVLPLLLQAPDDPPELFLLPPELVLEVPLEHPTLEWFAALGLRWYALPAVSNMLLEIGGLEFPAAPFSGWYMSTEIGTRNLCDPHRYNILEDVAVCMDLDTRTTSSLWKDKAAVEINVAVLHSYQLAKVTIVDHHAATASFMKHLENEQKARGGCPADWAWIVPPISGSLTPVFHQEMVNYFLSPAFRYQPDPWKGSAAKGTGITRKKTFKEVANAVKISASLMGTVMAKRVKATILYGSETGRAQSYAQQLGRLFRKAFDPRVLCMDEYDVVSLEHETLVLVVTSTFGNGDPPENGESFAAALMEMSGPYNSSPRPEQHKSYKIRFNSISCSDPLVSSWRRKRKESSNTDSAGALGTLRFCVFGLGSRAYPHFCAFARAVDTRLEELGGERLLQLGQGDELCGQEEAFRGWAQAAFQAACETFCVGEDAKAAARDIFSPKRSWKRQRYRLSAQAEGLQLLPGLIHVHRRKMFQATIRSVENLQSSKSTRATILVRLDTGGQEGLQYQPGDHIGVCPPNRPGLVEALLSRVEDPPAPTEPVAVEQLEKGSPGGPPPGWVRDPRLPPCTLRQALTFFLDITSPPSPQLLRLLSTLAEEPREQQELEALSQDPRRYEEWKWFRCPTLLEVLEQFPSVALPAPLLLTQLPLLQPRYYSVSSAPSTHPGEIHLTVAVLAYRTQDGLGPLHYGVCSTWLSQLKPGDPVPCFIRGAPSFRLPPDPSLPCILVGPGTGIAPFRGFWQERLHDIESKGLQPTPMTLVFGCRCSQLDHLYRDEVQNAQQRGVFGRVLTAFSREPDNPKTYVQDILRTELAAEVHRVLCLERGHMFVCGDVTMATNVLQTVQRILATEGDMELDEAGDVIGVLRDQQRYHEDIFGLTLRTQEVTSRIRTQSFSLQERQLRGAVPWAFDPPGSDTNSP
The experiment in a line: Inhibition of cloned (from RNA) human endothelial constitutive Endothelial nitric oxide synthase (heNOS).

For assay [4], the target named is T2, Nitric oxide synthase, inducible. As to the kind of experiment: Inhibition of cloned (from RNA) human inducible nitric oxide synthase (hiNOS) at 100 uM.
For assay [5], the target named is T1, Nitric oxide synthase 1. The experiment in a line: Inhibition of cloned (from RNA) human Neuronal nitric oxide synthase at 100 uM.
Assay [6] deals with T4, Nitric oxide synthase 3 (Homo sapiens) (UniProt P29474).
T4 sequence (whole entry): T3 sequence (P29474 whole entry)
As to the kind of experiment: Inhibition of cloned (from RNA) human endothelial constitutive Endothelial nitric oxide synthase (heNOS)at 100 uM.

Assay [7] addresses T4, Nitric oxide synthase 3 (Homo sapiens). The experiment in a line: Inhibition of cloned (from RNA) human endothelial constitutive Endothelial nitric oxide synthase (heNOS) at 100 uM.
For assay [8], the target named is T2, Nitric oxide synthase, inducible. As to the kind of experiment: Inhibition of cloned (from RNA) human inducible nitric oxide synthase (hiNOS)at 100 uM.

T2 sequence (P35228 whole entry): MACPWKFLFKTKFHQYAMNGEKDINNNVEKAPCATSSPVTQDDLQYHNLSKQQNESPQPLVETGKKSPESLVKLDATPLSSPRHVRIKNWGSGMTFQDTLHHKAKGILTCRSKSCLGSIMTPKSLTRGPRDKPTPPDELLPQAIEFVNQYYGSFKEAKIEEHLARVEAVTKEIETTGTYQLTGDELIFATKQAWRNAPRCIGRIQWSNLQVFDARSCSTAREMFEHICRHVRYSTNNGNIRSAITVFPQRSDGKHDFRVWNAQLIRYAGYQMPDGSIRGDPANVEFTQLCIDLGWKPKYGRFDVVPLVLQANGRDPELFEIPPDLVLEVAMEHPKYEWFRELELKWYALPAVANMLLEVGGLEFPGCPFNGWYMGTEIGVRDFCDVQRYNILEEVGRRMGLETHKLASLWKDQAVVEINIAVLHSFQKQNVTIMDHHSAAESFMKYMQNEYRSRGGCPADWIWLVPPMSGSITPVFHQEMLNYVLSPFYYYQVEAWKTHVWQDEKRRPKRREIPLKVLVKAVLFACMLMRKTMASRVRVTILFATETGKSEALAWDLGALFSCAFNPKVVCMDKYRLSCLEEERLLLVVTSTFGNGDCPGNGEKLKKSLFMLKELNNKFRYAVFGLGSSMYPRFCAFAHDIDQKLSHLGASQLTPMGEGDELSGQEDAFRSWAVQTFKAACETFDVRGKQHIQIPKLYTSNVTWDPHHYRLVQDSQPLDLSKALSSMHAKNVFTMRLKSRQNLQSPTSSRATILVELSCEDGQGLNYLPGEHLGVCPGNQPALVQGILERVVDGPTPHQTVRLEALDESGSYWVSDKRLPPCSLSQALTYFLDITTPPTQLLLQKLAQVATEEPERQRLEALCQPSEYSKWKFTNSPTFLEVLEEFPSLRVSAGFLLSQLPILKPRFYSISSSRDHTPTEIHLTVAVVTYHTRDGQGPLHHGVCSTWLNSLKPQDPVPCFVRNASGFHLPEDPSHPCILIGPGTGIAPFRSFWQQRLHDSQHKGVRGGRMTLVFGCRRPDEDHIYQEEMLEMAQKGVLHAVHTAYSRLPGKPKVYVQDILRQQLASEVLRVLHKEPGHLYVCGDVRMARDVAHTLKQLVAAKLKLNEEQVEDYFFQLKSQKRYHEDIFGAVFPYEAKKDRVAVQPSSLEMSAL
T1 sequence (P29475 whole entry): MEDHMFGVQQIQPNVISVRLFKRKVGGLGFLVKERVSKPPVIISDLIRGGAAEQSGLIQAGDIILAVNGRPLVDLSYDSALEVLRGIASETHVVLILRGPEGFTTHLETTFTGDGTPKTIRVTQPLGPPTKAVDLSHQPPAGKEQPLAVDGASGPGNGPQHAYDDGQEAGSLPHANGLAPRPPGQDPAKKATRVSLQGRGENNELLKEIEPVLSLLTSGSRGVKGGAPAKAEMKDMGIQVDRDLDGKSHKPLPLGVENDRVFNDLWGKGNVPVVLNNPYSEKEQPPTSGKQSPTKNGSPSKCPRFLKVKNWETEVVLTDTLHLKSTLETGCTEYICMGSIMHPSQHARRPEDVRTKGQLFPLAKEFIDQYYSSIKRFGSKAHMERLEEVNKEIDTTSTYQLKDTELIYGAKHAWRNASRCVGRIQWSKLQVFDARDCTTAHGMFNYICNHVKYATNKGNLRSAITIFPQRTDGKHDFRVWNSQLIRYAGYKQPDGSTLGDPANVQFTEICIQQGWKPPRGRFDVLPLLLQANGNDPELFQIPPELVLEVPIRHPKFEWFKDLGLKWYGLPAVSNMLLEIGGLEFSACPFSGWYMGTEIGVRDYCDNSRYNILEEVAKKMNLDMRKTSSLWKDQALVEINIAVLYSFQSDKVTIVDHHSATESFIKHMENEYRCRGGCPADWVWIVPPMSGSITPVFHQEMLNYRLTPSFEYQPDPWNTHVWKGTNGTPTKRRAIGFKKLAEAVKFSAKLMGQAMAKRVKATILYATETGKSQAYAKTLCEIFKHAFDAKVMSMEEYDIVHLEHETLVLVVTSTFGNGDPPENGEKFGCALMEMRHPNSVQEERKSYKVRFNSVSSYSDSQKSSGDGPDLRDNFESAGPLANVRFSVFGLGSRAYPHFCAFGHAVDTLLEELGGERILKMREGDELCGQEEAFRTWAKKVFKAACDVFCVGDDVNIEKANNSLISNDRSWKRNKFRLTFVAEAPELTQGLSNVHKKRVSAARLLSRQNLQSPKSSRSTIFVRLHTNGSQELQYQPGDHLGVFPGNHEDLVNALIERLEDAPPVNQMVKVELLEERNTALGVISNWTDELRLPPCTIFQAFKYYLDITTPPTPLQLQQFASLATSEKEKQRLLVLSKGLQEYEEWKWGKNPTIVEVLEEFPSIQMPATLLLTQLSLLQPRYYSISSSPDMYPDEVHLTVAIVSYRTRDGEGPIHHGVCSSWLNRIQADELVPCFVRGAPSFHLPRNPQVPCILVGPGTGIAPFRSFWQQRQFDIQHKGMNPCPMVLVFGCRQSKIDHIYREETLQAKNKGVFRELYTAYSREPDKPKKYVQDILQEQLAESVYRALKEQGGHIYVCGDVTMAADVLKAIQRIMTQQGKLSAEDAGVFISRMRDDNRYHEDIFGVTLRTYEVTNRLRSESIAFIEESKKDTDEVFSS

With `CCCC1N=C(N)CC1C` (stereo unspecified), the IC50 in assay [1] amounted to 0.39 µM; in assay [2], 0.3 µM; in assay [3] it was 3.5 µM.

As to `CC1CN=C(N)C1` (stereo unspecified), the half-inhibitory concentration (IC50) in assay [1] was 4.7 µM; in assay [2], 1.4 µM; in assay [3], 14.2 µM.

For the compound `CCC1CN=C(N)C1` (stereo unspecified), the IC50 stood at 5.46 µM in assay [1], 3.4 µM in assay [2] and 29.8 µM in assay [3].

Turning to `CC1CCN=C1N` (stereo unspecified), the IC50 in assay [1] came out at 3 µM; in assay [2] it was 11.3 µM; in assay [3], 9.1 µM.

`CCC1N=C(N)CC1C` (stereo unspecified): the figures for the IC50 in assay [1], in assay [2] and in assay [3] were 0.17 µM, 0.17 µM and 1.6 µM, respectively.

In the case of `CCCCC1N=C(N)CC1C` (stereo unspecified), the IC50 in assay [1] is 0.85 µM; in assay [2], 0.66 µM; in assay [3], 23.6 µM.

Regarding `CC1CCC(N)=N1` (stereo unspecified), the IC50 in assay [1] was found to be 9.8 µM; in assay [2] it was 10.2 µM; in assay [3], 24.9 µM.

As for `CC1(C)CC(N)=NC1Cc1ccccc1` (stereo unspecified), the inhibition in assay [4] came to 12%; in assay [5], 17%; in assay [6], 3%.

Take `CCCCCC1N=C(N)CC1(C)C` (stereo unspecified): the inhibition in assay [5] was 46%; in assay [7] it was 17%; in assay [8] it was 64%.

With `NC1=NC(Cc2ccccc2)CC1` (stereo unspecified), the inhibition in assay [4] turned out to be 26%; in assay [5] it was 47%; in assay [7], 16%.

For the compound `CCCCCC1N=C(N)CC1C` (stereo in doubt; 9), the IC50 in assay [1] is 1.31 µM; in assay [2], 0.91 µM; in assay [3] it was 47.5 µM.

In the case of `CCCCCC1N=C(N)CC1C` (stereo in doubt; 10), the IC50 in assay [1] is 5.37 µM; in assay [2], 0.36 µM; in assay [3], 243 µM.

For `CC1CC(N)=NC1Cc1ccccc1` (stereo in doubt; 11), the results for the IC50 in assay [1], in assay [2] and in assay [3] were 8.29 µM, 3 µM and 458 µM, respectively.

On to `CCCCCC1N=C(N)CC1C(F)(F)F` (stereo in doubt; 13), for which the concentration for half-maximal inhibition (IC50) in assay [1] stood at 9.05 µM; in assay [2], 10 µM; in assay [3], 336 µM.

For the compound `CCCCCC1N=C(N)CC1C(F)(F)F` (stereo in doubt; 14), the IC50 was found to be 5.44 µM in assay [1], 0.81 µM in assay [2] and 392 µM in assay [3].

Take `CC1CC(N)=NC1Cc1ccccc1` (stereo in doubt; 16): the results for the IC50 in assay [1], in assay [2] and in assay [3] were 11.2 µM, 14 µM and 639 µM, respectively.

For the compound `NC1=NC(Cc2ccccc2)C(C(F)(F)F)C1` (stereo in doubt; 17), the IC50 in assay [1] was 12.1 µM; in assay [2], 22 µM; in assay [3], 1010 µM.

As to `NC1=NC(Cc2ccccc2)C(C(F)(F)F)C1` (stereo in doubt; 18), the results for the IC50 in assay [1], in assay [2] and in assay [3] were 38.3 µM, 74 µM and 2920 µM, respectively.

For the compound `CCCCCC1N=C(N)CC1C` (stereo in doubt; 20), the IC50 in assay [1] stood at 3.2 µM; in assay [2], 0.25 µM; in assay [3], 226 µM.

As to `CCCCCC1N=C(N)CC1C` (stereo in doubt; 21), the concentration for half-maximal inhibition (IC50) in assay [1] was determined as 20.6 µM; in assay [2], 4.5 µM; in assay [3], 578 µM.

For the compound `CCCCCC1N=C(N)CC1C(F)(F)F` (stereo in doubt; 22), the IC50 in assay [1] was found to be 2.53 µM; in assay [2], 0.23 µM; in assay [3] it was 212 µM.

As to `CCCCCC1N=C(N)CC1C(F)(F)F` (stereo in doubt; 23), the IC50 in assay [1] is 45.7 µM; in assay [2], 7.5 µM; in assay [3] it was 1680 µM.

The record behind these values is ChEMBL document CHEMBL1131100, “2-Iminopyrrolidines as potent and selective inhibitors of human inducible nitric oxide synthase” (J Med Chem, 1998).
